Test results taken from ChEMBL document CHEMBL1201862, “PubChem BioAssay data set” (2004).
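48-hour exposure; five concentrations; linearly interpolated endpoints. GI50 = concentration required for 50% inhibition of growth.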 Active and inactive are the calls of the source. Cut-off read from the data, not from the text of the source: active = GI50 up to about 1.1 µM and inactive = higher.

Columns and labels:
Test in all cases: DTP human tumour cell line panel, 48 h
LOX IMVI = tested on: LOX IMVI
NCI-H226 = tested on: NCI-H226
RXF 393 = tested on: RXF 393
M14 = tested on: M14
HOP-92 = tested on: HOP-92
RPMI-8226 = tested on: RPMI-8226
UO-31 = tested on: UO-31
SNB-19 = tested on: SNB-19
TK-10 = tested on: TK-10
UACC-62 = tested on: UACC-62
NCI-H522 = tested on: NCI-H522
Malme-3M = tested on: Malme-3M
SNB-75 = tested on: SNB-75
SN12C = tested on: SN12C
A549 = tested on: A549
KM12 = tested on: KM12
SF-539 = tested on: SF-539
IGROV-1 = tested on: IGROV-1
T47D = tested on: T47D

Compound | GI50 (LOX IMVI) | GI50 (NCI-H226) | GI50 (RXF 393) | GI50 (M14) | GI50 (HOP-92) | GI50 (RPMI-8226) | GI50 (UO-31) | GI50 (SNB-19) | GI50 (TK-10) | GI50 (UACC-62) | GI50 (NCI-H522) | GI50 (Malme-3M) | GI50 (SNB-75) | GI50 (SN12C) | GI50 (A549) | GI50 (KM12) | GI50 (SF-539) | GI50 (IGROV-1) | GI50 (T47D)
O=C(Cc1ccccc1)NN1C(=O)C(Cl)C1c1ccccc1Cl (stereo not given) | 24.3 µM (inactive) | > 100 µM (inactive) | 48.8 µM (inactive) | > 100 µM (inactive) | > 100 µM (inactive) | 19.5 µM (inactive) | > 100 µM (inactive) | > 100 µM (inactive) | > 100 µM (inactive) | 68.5 µM (inactive) | 13.2 µM (inactive) | > 100 µM (inactive) | 51.3 µM (inactive) | > 75.9 µM (inactive) | > 100 µM (inactive) | > 79.3 µM (inactive) | > 100 µM (inactive) | 39 µM (inactive) | –
CCOc1ccc(NC(=O)C2=C(C)NC(C)=C(C(=O)Nc3ccc(OCC)cc3)C2c2ccccc2)cc1 | > 100 µM (inactive) | > 100 µM (inactive) | > 100 µM (inactive) | > 100 µM (inactive) | > 100 µM (inactive) | 49.9 µM (inactive) | 29.2 µM (inactive) | > 100 µM (inactive) | > 100 µM (inactive) | – | 38.3 µM (inactive) | > 100 µM (inactive) | 95.7 µM (inactive) | > 100 µM (inactive) | > 100 µM (inactive) | 41.7 µM (inactive) | > 100 µM (inactive) | > 100 µM (inactive) | –
CC(=O)c1cccc(N2COC(C)(C)c3nc4ccccc4n3C2)c1 | > 100 µM (inactive) | > 100 µM (inactive) | > 100 µM (inactive) | > 100 µM (inactive) | > 100 µM (inactive) | > 100 µM (inactive) | > 100 µM (inactive) | > 100 µM (inactive) | > 100 µM (inactive) | > 100 µM (inactive) | > 100 µM (inactive) | > 100 µM (inactive) | > 100 µM (inactive) | > 100 µM (inactive) | > 100 µM (inactive) | > 100 µM (inactive) | > 100 µM (inactive) | > 100 µM (inactive) | –
COc1cc(OC)c2c(c1OC)OCC(Cc1ccc(O)cc1)C2=O (stereo not given) | > 25 µM (inactive) | > 25 µM (inactive) | 20.3 µM (inactive) | > 25 µM (inactive) | – | > 25 µM (inactive) | > 25 µM (inactive) | > 25 µM (inactive) | > 25 µM (inactive) | > 25 µM (inactive) | > 25 µM (inactive) | > 25 µM (inactive) | > 25 µM (inactive) | > 25 µM (inactive) | > 25 µM (inactive) | > 25 µM (inactive) | > 25 µM (inactive) | > 25 µM (inactive) | 8.3 µM (inactive)
CCCc1c(C(=O)OCC)[nH]c(C(=O)CCC(=O)c2[nH]c(C(=O)OCC)c(CCC)c2C(=O)OCC)c1C(=O)OCC | > 100 µM (inactive) | > 100 µM (inactive) | 70.5 µM (inactive) | > 100 µM (inactive) | > 100 µM (inactive) | > 100 µM (inactive) | > 100 µM (inactive) | > 100 µM (inactive) | > 100 µM (inactive) | > 100 µM (inactive) | > 100 µM (inactive) | > 100 µM (inactive) | 19.1 µM (inactive) | > 100 µM (inactive) | > 100 µM (inactive) | > 100 µM (inactive) | > 100 µM (inactive) | > 100 µM (inactive) | –
CCOC(=O)C1=NC(c2ccccc2)(c2ccccc2)OC1=C(Cl)Cl | 46 µM (inactive) | > 100 µM (inactive) | 0.879 µM (active) | 85.9 µM (inactive) | 35.4 µM (inactive) | 19.1 µM (inactive) | 65 µM (inactive) | > 100 µM (inactive) | > 100 µM (inactive) | 99.8 µM (inactive) | 23.1 µM (inactive) | 40 µM (inactive) | > 100 µM (inactive) | > 100 µM (inactive) | 54.6 µM (inactive) | 94 µM (inactive) | > 100 µM (inactive) | > 100 µM (inactive) | –
O=C1CCC(=O)c2sccc2N1 | > 100 µM (inactive) | > 100 µM (inactive) | > 100 µM (inactive) | > 100 µM (inactive) | > 100 µM (inactive) | > 100 µM (inactive) | > 100 µM (inactive) | > 100 µM (inactive) | > 100 µM (inactive) | – | > 100 µM (inactive) | > 100 µM (inactive) | > 100 µM (inactive) | > 100 µM (inactive) | > 100 µM (inactive) | > 100 µM (inactive) | > 100 µM (inactive) | > 100 µM (inactive) | –
CCCCN(CCCC)CC(C(C)=O)C(c1ccccc1)c1c(O)c2ccccc2oc1=O (stereo not given) | > 100 µM (inactive) | > 100 µM (inactive) | 84.7 µM (inactive) | > 100 µM (inactive) | 28 µM (inactive) | > 100 µM (inactive) | – | > 100 µM (inactive) | > 100 µM (inactive) | > 100 µM (inactive) | > 100 µM (inactive) | > 100 µM (inactive) | 19.3 µM (inactive) | > 100 µM (inactive) | > 100 µM (inactive) | > 100 µM (inactive) | > 100 µM (inactive) | > 100 µM (inactive) | –
O=C1OC(OCC#CCOC2OC(=O)C(Cl)=C2Cl)C(Cl)=C1Cl (stereo not given) | 2.65 µM (inactive) | – | – | 11.2 µM (inactive) | – | 3.57 µM (inactive) | 11.6 µM (inactive) | 16.1 µM (inactive) | 9.16 µM (inactive) | 14.2 µM (inactive) | 1.7 µM (inactive) | – | 12.4 µM (inactive) | 17.3 µM (inactive) | 18.4 µM (inactive) | 18.9 µM (inactive) | 16.5 µM (inactive) | 12.9 µM (inactive) | 10.7 µM (inactive)
CCN(CC)C(=O)COc1ccc(Br)cc1Br | > 100 µM (inactive) | > 100 µM (inactive) | > 100 µM (inactive) | > 100 µM (inactive) | 87.5 µM (inactive) | > 100 µM (inactive) | > 100 µM (inactive) | > 100 µM (inactive) | > 100 µM (inactive) | 38.8 µM (inactive) | 50.1 µM (inactive) | > 100 µM (inactive) | 83.6 µM (inactive) | > 100 µM (inactive) | > 100 µM (inactive) | > 100 µM (inactive) | > 100 µM (inactive) | – | –
Cc1ccc(S(=O)(=O)SCc2ccccc2CSS(=O)(=O)c2ccc(C)cc2)cc1 | 15.8 µM (inactive) | > 100 µM (inactive) | 15.7 µM (inactive) | 19.1 µM (inactive) | 21.7 µM (inactive) | 17.5 µM (inactive) | 78.3 µM (inactive) | > 100 µM (inactive) | > 100 µM (inactive) | 15.8 µM (inactive) | 10.9 µM (inactive) | 24.2 µM (inactive) | 57.7 µM (inactive) | 17.7 µM (inactive) | > 100 µM (inactive) | 59.7 µM (inactive) | 19.5 µM (inactive) | > 100 µM (inactive) | –
Nc1ncnc2c1nnn2C1C=C(CO)C(O)C1O (stereo not given) | 38.6 µM (inactive) | > 100 µM (inactive) | > 77.1 µM (inactive) | > 52.2 µM (inactive) | 14.3 µM (inactive) | 20.3 µM (inactive) | 42.5 µM (inactive) | > 100 µM (inactive) | > 92.5 µM (inactive) | > 100 µM (inactive) | > 100 µM (inactive) | > 100 µM (inactive) | 30.9 µM (inactive) | 33 µM (inactive) | 58.1 µM (inactive) | 36.6 µM (inactive) | > 85.3 µM (inactive) | > 100 µM (inactive) | –
N#CCc1ccc(C(C#N)/C(CCCC(=O)Nc2cccc([N+](=O)[O-])c2)=N/NC(N)=S)cc1 (stereo not given) | 63.1 µM (inactive) | > 100 µM (inactive) | > 100 µM (inactive) | > 100 µM (inactive) | 83.8 µM (inactive) | > 100 µM (inactive) | > 100 µM (inactive) | 76 µM (inactive) | > 100 µM (inactive) | 44.1 µM (inactive) | 27.9 µM (inactive) | > 100 µM (inactive) | > 100 µM (inactive) | > 100 µM (inactive) | > 100 µM (inactive) | > 100 µM (inactive) | > 100 µM (inactive) | > 100 µM (inactive) | –
CCOC(=O)c1c(NC(=O)c2ccccc2)c(C#N)c2n1CCCCC2 | > 100 µM (inactive) | > 100 µM (inactive) | > 100 µM (inactive) | > 100 µM (inactive) | > 100 µM (inactive) | > 100 µM (inactive) | > 100 µM (inactive) | > 100 µM (inactive) | > 100 µM (inactive) | > 100 µM (inactive) | > 100 µM (inactive) | > 100 µM (inactive) | > 100 µM (inactive) | > 100 µM (inactive) | > 100 µM (inactive) | > 100 µM (inactive) | – | > 100 µM (inactive) | > 100 µM (inactive)
CC1CC(c2cccc3c2OCO3)=Nc2ccccc2S1 (stereo not given) | > 100 µM (inactive) | > 100 µM (inactive) | > 100 µM (inactive) | > 100 µM (inactive) | > 100 µM (inactive) | > 100 µM (inactive) | > 100 µM (inactive) | > 100 µM (inactive) | > 100 µM (inactive) | > 100 µM (inactive) | > 100 µM (inactive) | > 100 µM (inactive) | > 100 µM (inactive) | > 100 µM (inactive) | > 100 µM (inactive) | > 100 µM (inactive) | > 100 µM (inactive) | > 100 µM (inactive) | –
CCCn1c(SCC)c2cc3cc4ccccc4cc3cc2c1-c1nc(F)nc(F)n1 | > 100 µM (inactive) | > 100 µM (inactive) | > 100 µM (inactive) | > 100 µM (inactive) | > 100 µM (inactive) | > 100 µM (inactive) | > 100 µM (inactive) | > 100 µM (inactive) | > 100 µM (inactive) | – | > 100 µM (inactive) | > 100 µM (inactive) | > 100 µM (inactive) | > 100 µM (inactive) | > 100 µM (inactive) | > 100 µM (inactive) | > 100 µM (inactive) | > 100 µM (inactive) | –
